What was measured:
K-Ras G12V = target: T1, K-Ras G12V (Homo sapiens, UniProt P01116, G12V); test: HTRF resonance energy transfer assay, K-Ras G12V / SOS1 interaction; type: biochemical; settings: HTRF assay of Example 5; read-out: IC50 against K-Ras G12V
T1 construct: made in house; host or cells: E. coli BL21 (DE3)
In short: (§1)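 GST-tagged K-Ras (WT or mutant) bound to anti-GST-Eu donor was mixed with His-hSOS1 bound to anti-6His-XL665 acceptor in ~5 mM HEPES pH 7.4, 150 mM NaCl, 1 mM DTT, 0.05% BSA, 0.0025% Igepal. HTRF (ex 337, em 620/665 nm) was read after ~10 min or longer. IC50 came from the 665/620 ratio over duplicates from 10 μM to 0.01 μM.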

K-Ras G12S = target: T2, K-Ras G12S (Homo sapiens, UniProt P01116, G12S); test: HTRF resonance energy transfer assay, K-Ras G12S / SOS1 interaction; type: biochemical; settings: HTRF assay of Example 5; read-out: IC50 against K-Ras G12S
T2 construct: made in house; host or cells: E. coli BL21 (DE3)
T2 sequence (P01116 1-188 isoform P01116-2 G12S): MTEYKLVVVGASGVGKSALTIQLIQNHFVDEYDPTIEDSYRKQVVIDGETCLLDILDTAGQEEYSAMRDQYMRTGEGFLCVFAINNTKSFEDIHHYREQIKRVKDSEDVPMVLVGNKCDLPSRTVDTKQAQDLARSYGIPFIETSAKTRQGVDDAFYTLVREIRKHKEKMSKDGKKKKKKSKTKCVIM
In short: as §1

K-Ras G12D = target: T3, K-Ras G12D (Homo sapiens, UniProt P01116, G12D); test: HTRF resonance energy transfer assay, K-Ras G12D / SOS1 interaction; type: biochemical; settings: HTRF assay of Example 5; read-out: IC50 against K-Ras G12D
T3 construct: made in house; host or cells: E. coli BL21 (DE3)
T3 sequence (P01116 1-188 isoform P01116-2 G12D): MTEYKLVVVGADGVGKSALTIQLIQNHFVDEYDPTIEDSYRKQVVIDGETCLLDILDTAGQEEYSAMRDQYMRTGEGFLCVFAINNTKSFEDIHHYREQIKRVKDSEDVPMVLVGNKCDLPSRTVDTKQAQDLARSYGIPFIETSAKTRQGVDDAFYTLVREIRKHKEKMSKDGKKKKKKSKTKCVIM
In short: as §1

K-Ras WT = target: T4, K-Ras WT (Homo sapiens, UniProt P01116); test: HTRF resonance energy transfer assay, K-Ras WT / SOS1 interaction; type: biochemical; settings: HTRF assay of Example 5; read-out: IC50 against K-Ras WT
T4 construct: made in house; host or cells: E. coli BL21 (DE3)
T4 sequence (P01116 1-188 isoform P01116-2): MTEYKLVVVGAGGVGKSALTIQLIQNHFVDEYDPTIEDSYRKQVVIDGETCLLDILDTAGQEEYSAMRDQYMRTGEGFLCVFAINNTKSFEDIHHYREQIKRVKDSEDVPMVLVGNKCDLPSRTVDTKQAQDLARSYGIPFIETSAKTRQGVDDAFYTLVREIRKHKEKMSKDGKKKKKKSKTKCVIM
In short: as §1

SW620 cells = test: Ras cellular assay, growth of cells with K-Ras G12V mutation (CellTiter-Glo); type: cell-based; settings: Homo sapiens, SW-620; cell growth, Example 9, G12V mutation; read-out: IC50 against SW620 cells
Description: For example, this assay can be also used to assess a selective growth inhibition of a mutant Ras protein relative to a wildtype, or relative to a different mutant Ras protein.
SW620 (ATCC CCL-227) and Capan-1 (ATCC HTB-79) cell lines comprise a G12V mutation and can be used to assess Ras cellular signaling in vitro, e.g., in response to the compounds herein. SW620 culture medium is prepared with RPMI-1640 and 10% heat-inactivated FBS. Capan-1 culture medium is prepared with RPMI-1640 and 10% heat-inactivated FBS. A CellTiter-Glo (CTG) luminescent based assay (Promega) is used to assess growth of the cells, as a measurement of the ability of the compounds herein to inhibit Ras signaling in the cells. The cells (e.g., 800 per well) are seeded in their respective culture medium in standard tissue culture-treated 384-well format plates (Falcon #08-772-116) or ultra-low attachment surface 384-well format plates (S-Bio #MS-9384WZ). The day after plating, cells are treated with a dilution series (e.g., a 10 point 3-fold dilution series) of the compounds herein (e.g., approximately 40 μL final volume per well). Cell viability can be monitored (e.g., approximately 6 days later) according to the manufacturer's recommended instructions, where the CellTiter-Glo reagent is added (e.g., approximately 10 μL), vigorously mixed, covered, and placed on a plate shaker (e.g., approximately for 20 min) to ensure sufficient cell lysis prior to assessment of luminescent signal. The IC50 values are determined using the four parameter fit. The resulting IC50 value is a measurement of the ability of the compounds herein to reduce cell growth of Ras-driven cells (e.g., tumor cell lines) in vitro and/or in vivo.

T1 sequence (P01116 1-188 isoform P01116-2 G12V): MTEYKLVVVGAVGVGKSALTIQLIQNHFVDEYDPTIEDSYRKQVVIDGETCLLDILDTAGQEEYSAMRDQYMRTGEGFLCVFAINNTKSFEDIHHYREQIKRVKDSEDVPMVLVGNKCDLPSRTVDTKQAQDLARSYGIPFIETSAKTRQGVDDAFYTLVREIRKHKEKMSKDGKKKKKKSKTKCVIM

SMILES | IC50 (K-Ras G12V) [nM] | IC50 (K-Ras G12S) [nM] | IC50 (K-Ras G12D) [nM] | IC50 (K-Ras WT) [nM] | IC50 (SW620 cells) [µM]
CC[C@H]1COc2c(Cl)c(-c3ccc(F)c4sc(N)c(C#N)c34)c(F)c3nc(OC[C@@]45CCCN4C[C@H](F)C5)nc(c23)N1CC(F)F [Compound 619, 2-amino-4-((5S)-8-chloro-4-(2,2-difluoroethyl)-5-ethyl-10-fluoro-2-(((2R,7aS)-2-fluorotetrahydro-1H-pyrrolizin-7a(5H)-yl)methoxy)-5,6-dihydro-4H-[1,4]oxazepino[5,6,7-de]quinazolin-9-yl)-7-fluorobenzo[b]thiophene-3-carbonitrile] | < 100 | < 100 | < 100 | < 100 | < 5
COC(C)[C@H]1COc2c(Cl)c(-c3ccc(F)c4sc(N)c(C#N)c34)c(F)c3nc(OC[C@@]45CCCN4C[C@H](F)C5)nc(c23)N1CC(F)F (stereo partly drawn) [Compound 630, 2-amino-4-((5R)-8-chloro-4-(2,2-difluoroethyl)-10-fluoro-2-(((2R,7aS)-2-fluorotetrahydro-1H-pyrrolizin-7a(5H)-yl)methoxy)-5-(1-methoxyethyl)-5,6-dihydro-4H-[1,4]oxazepino[5,6,7-de]quinazolin-9-yl)-7-fluorobenzo[b]thiophene-3-carbonitrile] | < 100 | < 100 | < 100 | < 100 | < 5
CC(O)C1COc2c(Cl)c(-c3ccc(F)c4sc(N)c(C#N)c34)c(F)c3nc(OC[C@@]45CCCN4C[C@H](F)C5)nc(c23)N1CC1CCNC1 (stereo partly drawn) [Compound 632, 2-amino-4-(8-chloro-10-fluoro-2-(((2R,7aS)-2-fluorotetrahydro-1H-pyrrolizin-7a(5H)-yl)methoxy)-5-(1-hydroxyethyl)-4-(pyrrolidin-3-ylmethyl)-5,6-dihydro-4H-[1,4]oxazepino[5,6,7-de]quinazolin-9-yl)-7-fluorobenzo[b]thiophene-3-carbonitrile] | < 100 | < 100 | < 100 | < 100 | < 5
CN(C)C1CCC(N2CCOc3c(Cl)c(-c4ccc(F)c5sc(N)c(C#N)c45)c(F)c4nc(OC[C@@]56CCCN5C[C@H](F)C6)nc2c34)C1 (stereo partly drawn) [Compound 677, 2-amino-4-(8-chloro-4-(3-(dimethylamino)cyclopentyl)-10-fluoro-2-(((2R,7aS)-2-fluorotetrahydro-1H-pyrrolizin-7a(5H)-yl)methoxy)-5,6-dihydro-4H-[1,4]oxazepino[5,6,7-de]quinazolin-9-yl)-7-fluorobenzo[b]thiophene-3-carbonitrile] | < 100 | < 100 | < 100 | < 100 | < 5
CN(CCCN1c2nc(OC[C@@]34CCCN3C[C@H](F)C4)nc3c(F)c(-c4ccc(F)c5sc(N)c(C#N)c45)c(Cl)c(c23)OCC1CC#N)C(=O)[C@H]1CN1 (stereo partly drawn) [Compound 709, (2R)—N-(3-(9-(2-amino-3-cyano-7-fluorobenzo[b]thiophen-4-yl)-8-chloro-5-(cyanomethyl)-10-fluoro-2-(((2R,7aS)-2-fluorotetrahydro-1H-pyrrolizin-7a(5H)-yl)methoxy)-5,6-dihydro-4H-[1,4]oxazepino[5,6,7-de]quinazolin-4-yl)propyl)-N-methylaziridine-2-carboxamide] | < 100 | < 100 | < 100 | < 100 | < 5
CC(C)[C@H](N)C(=O)N1CCC(N2C[C@H](C)Oc3c(Cl)c(-c4ccc(F)c5sc(N)c(C#N)c45)c(F)c4nc(OC[C@@]56CCCN5C[C@H](F)C6)nc2c34)C1 (stereo partly drawn) [Compound 714, 4-((6S)-4-(1-(L-valyl)pyrrolidin-3-yl)-8-chloro-10-fluoro-2-(((2R,7aS)-2-fluorotetrahydro-1H-pyrrolizin-7a(5H)-yl)methoxy)-6-methyl-5,6-dihydro-4H-[1,4]oxazepino[5,6,7-de]quinazolin-9-yl)-2-amino-7-fluorobenzo[b]thiophene-3-carbonitrile] | < 100 | < 100 | < 100 | < 100 | < 5
N#Cc1c(N)sc2c(F)ccc(-c3c(Cl)c4c5c(nc(OC[C@@]67CCCN6C[C@H](F)C7)nc5c3F)N(Cc3ccnn3CC(F)F)CCO4)c12 [Compound 720, 2-amino-4-(8-chloro-4-((1-(2,2-difluoroethyl)-1H-pyrazol-5-yl)methyl)-10-fluoro-2-(((2R,7aS)-2-fluorotetrahydro-1H-pyrrolizin-7a(5H)-yl)methoxy)-5,6-dihydro-4H-[1,4]oxazepino[5,6,7-de]quinazolin-9-yl)-7-fluorobenzo[b]thiophene-3-carbonitrile] | < 100 | < 100 | < 100 | < 100 | < 5
C[C@H]1COc2c(Cl)c(-c3ccc(F)c4sc(N)c(C#N)c34)c(F)c3nc(OC[C@@]45CCCN4C[C@H](F)C5)nc(c23)N1C1CCOC1 (stereo partly drawn) [Compound 750, 2-amino-4-((5S)-8-chloro-10-fluoro-2-(((2R,7aS)-2-fluorotetrahydro-1H-pyrrolizin-7a(5H)-yl)methoxy)-5-methyl-4-(tetrahydrofuran-3-yl)-5,6-dihydro-4H-[1,4]oxazepino[5,6,7-de]quinazolin-9-yl)-7-fluorobenzo[b]thiophene-3-carbonitrile] | < 100 | < 100 | < 100 | < 100 | < 5
CC(O)C1COc2c(Cl)c(-c3ccc(F)c4sc(N)c(C#N)c34)c(F)c3nc(OC[C@@]45CCCN4C[C@H](F)C5)nc(c23)N1CC1CCCNC1 (stereo partly drawn) [Compound 764, 2-amino-4-(8-chloro-10-fluoro-2-(((2R,7aS)-2-fluorotetrahydro-1H-pyrrolizin-7a(5H)-yl)methoxy)-5-(1-hydroxyethyl)-4-(piperidin-3-ylmethyl)-5,6-dihydro-4H-[1,4]oxazepino[5,6,7-de]quinazolin-9-yl)-7-fluorobenzo[b]thiophene-3-carbonitrile] | < 100 | < 100 | < 100 | < 100 | < 5
Cn1nc(N)cc1CN1CCOc2c(Cl)c(-c3ccc(F)c4sc(N)c(C#N)c34)c(F)c3nc(OC[C@@]45CCCN4C[C@H](F)C5)nc1c23 [Compound 770, 2-amino-4-(4-((3-amino-1-methyl-1H-pyrazol-5-yl)methyl)-8-chloro-10-fluoro-2-(((2R,7aS)-2-fluorotetrahydro-1H-pyrrolizin-7a(5H)-yl)methoxy)-5,6-dihydro-4H-[1,4]oxazepino[5,6,7-de]quinazolin-9-yl)-7-fluorobenzo[b]thiophene-3-carbonitrile] | < 100 | < 100 | < 100 | < 100 | < 5
N#Cc1c(N)sc2c(F)ccc(-c3c(Cl)c4c5c(nc(OC[C@@]67CCCN6C[C@H](F)C7)nc5c3F)N(C3CCCC3O)CCO4)c12 (stereo partly drawn) [Compound 808, 2-amino-4-(8-chloro-10-fluoro-2-(((2R,7aS)-2-fluorotetrahydro-1H-pyrrolizin-7a(5H)-yl)methoxy)-4-(2-hydroxycyclopentyl)-5,6-dihydro-4H-[1,4]oxazepino[5,6,7-de]quinazolin-9-yl)-7-fluorobenzo[b]thiophene-3-carbonitrile] | < 100 | < 100 | < 100 | < 100 | < 5
CC1Oc2c(Cl)c(-c3ccc(F)c4sc(N)c(C#N)c34)c(F)c3nc(OC[C@@]45CCCN4C[C@H](F)C5)nc(c23)N(CC(F)F)[C@H]1C(C)(C)O (stereo partly drawn) [Compound 810, 2-amino-4-((5R)-8-chloro-4-(2,2-difluoroethyl)-10-fluoro-2-(((2R,7aS)-2-fluorotetrahydro-1H-pyrrolizin-7a(5H)-yl)methoxy)-5-(2-hydroxypropan-2-yl)-6-methyl-5,6-dihydro-4H-[1,4]oxazepino[5,6,7-de]quinazolin-9-yl)-7-fluorobenzo[b]thiophene-3-carbonitrile] | < 100 | < 100 | < 100 | < 100 | < 5

Source: patent US12209102B2, “Heterocyclic compounds and uses thereof” (Kumquat Biosciences Inc., priority 2022, dated 2025)
